BigSolDB 2.1

c1ccc(-n2c3ccccc3c3ccccc32)cc1
solubility (mole fraction)
Settings	278.15 K	283.15 K	288.15 K	293.15 K	298.15 K	303.15 K	308.15 K	313.15 K
in 1,4-dioxane	–	–	0.124	0.213	0.292	0.417	0.514	0.717
in THF	0.249	0.274	0.309	0.346	0.386	0.439	0.497	0.562
in acetonitrile	0.00383	0.00413	0.00487	0.00582	0.00624	0.00735	0.00826	0.0102
in chloroform	0.237	0.262	0.322	0.399	0.461	0.555	0.651	0.753
in cyclohexane	–	0.034	0.0421	0.0523	0.0691	0.0815	0.101	0.132
in dichloromethane	0.223	0.246	0.311	0.385	0.453	0.548	0.644	–
in ethanol	0.00099	0.00167	0.00218	0.00271	0.00334	0.0042	0.00574	0.007
in isopropanol	0.001	0.00131	0.00215	0.00244	0.00303	0.004	0.00458	0.00591
in methanol	6.96e-05	0.00011	0.000178	0.000208	0.000251	0.000296	0.000427	0.00055
in n-butanol	0.00207	0.00219	0.00266	0.00333	0.00403	0.00468	0.00691	0.00919
in n-hexane	0.0355	0.0378	0.0431	0.0494	0.0552	0.0624	0.0703	0.078
in n-propanol	0.00298	0.00323	0.00412	0.00517	0.0061	0.00749	0.00936	0.0116
